The source of these data is US11845760B2, “PRMT5 inhibitors” (AMGEN INC., priority 2020, dated 2023).

Structures are written as SMILES. Read-outs that look alike come from different tables or passages of the source.

One assay concerns HCT116 WT cells. Briefly: HCT116 WT cell line proliferation (CellTiter-Glo cell viability, 6 days). The class given is cell-based. The note with it: HCT116 WT (parent) cells, 6 days of treatment, CellTiter-Glo cell viability, read-out: HCT-116 WT IC50. In a few lines: (§1)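 Viability by CellTiter-Glo after 6 days' drug exposure in wild-type HCT116 and its MTAP-null knockout, with DMSO-only control. Dosing used either 1:3 steps (top 1 or 10 μM) or 22 points in 1:2 steps (top 10 or 50 μM). IC50 taken where the fitted curve crosses 50% of control.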
For orientation: In ATP-based viability assays light output follows the ATP content of the culture.

The next assay deals with HCT116 MTAP null cells. Briefly: HCT116 MTAP null cell line proliferation (CellTiter-Glo cell viability, 6 days). The settings on record: HCT116 MTAP null cells, 6 days of treatment, CellTiter-Glo cell viability, read-out: HCT-116 MTAP null IC50. The class given is cell-based. In a few lines: as §1

One may read the IC50 as the concentration that gives 50% inhibition. With `Cn1ncc2c3cc(C(=O)N4CCOC[C@@H]4c4ccc(S(F)(F)(F)(F)F)cc4)c(Cl)cc3nc(N)c21` [Example 419, (4-amino-7-chloro-3-methyl-3H-pyrazolo[3,4-c]quinolin-8-yl)((3S)-3-(4-(pentafluoro-lambda~6~-sulfanyl)phenyl)-4-morpholinyl)methanone], the IC50 with HCT116 WT cells (Homo sapiens, HCT-116, 144 h) was 0.548 µM; in the assay with HCT116 MTAP null cells (HCT116-MTAP null, 144 h), 0.023 µM.

Turning to `Cn1ncc2c(N)nc3cc(F)c(C(=O)N4CCOC[C@@H]4c4ccc(C(F)(F)F)cc4)cc3c21` [Example 420, (4-amino-7-fluoro-1-methyl-1H-pyrazolo[4,3-c]quinolin-8-yl)((3S)-3-(4-(trifluoromethyl)phenyl)-4-morpholinyl)methanone], the half-maximal inhibitory concentration (IC50) in the assay on HCT116 WT cells (Homo sapiens, HCT-116, 144 h) came out at 0.338 µM; in the assay on HCT116 MTAP null cells (HCT116-MTAP null, 144 h), 0.012 µM.

For the compound `C[C@H]1OCc2c1c(N)nc1ccc(C(=O)N3CC(c4ccc(C(F)(F)F)cn4)C3)cc21` [Example 421, ((3R)-4-amino-3-methyl-1,3-dihydrofuro[3,4-c]quinolin-8-yl)(3-(5-(trifluoromethyl)-2-pyridinyl)-1-azetidinyl)methanone], the IC50 was more than 50 µM in the assay with HCT116 WT cells (Homo sapiens, HCT-116, 144 h) and 0.914 µM in the assay on HCT116 MTAP null cells (HCT116-MTAP null, 144 h).

Regarding `Nc1nc2cc(F)c(C(=O)N3CC(c4ccc(C(F)(F)F)cc4)C3)cc2c2c1COC2` [Example 422], the values for the IC50 in the assay with HCT116 WT cells and with HCT116 MTAP null cells were 12.5 µM and 0.633 µM, respectively.

Regarding `Nc1nc2cc(F)c(C(=O)N3CC(c4ccc(C(F)(F)F)cn4)C3)cc2c2c1COC2` [Example 423, (4-amino-7-fluoro-1,3-dihydrofuro[3,4-c]quinolin-8-yl)(3-(5-(trifluoromethyl)-2-pyridinyl)-1-azetidinyl)methanone], the half-maximal inhibitory concentration (IC50) worked out at 33.3 µM in the assay on HCT116 WT cells (Homo sapiens, HCT-116, 144 h) and 0.653 µM with HCT116 MTAP null cells (HCT116-MTAP null, 144 h).

Consider `Cn1ncc2c(N)nc3ccc(C(=O)N4CC[C@H](c5ccc(C(F)(F)F)cc5)C4)cc3c21` [Example 425, (4-amino-1-methyl-1H-pyrazolo[4,3-c]quinolin-8-yl)((3R)-3-(4-(trifluoromethyl)phenyl)-1-pyrrolidinyl)methanone], for which the IC50 is 4.4 µM with HCT116 WT cells (Homo sapiens, HCT-116, 144 h) and 0.147 µM in the assay on HCT116 MTAP null cells (HCT116-MTAP null, 144 h).

As to `Cn1ncc2c(N)nc3cnc(C(=O)N4CC[C@H](c5ccc(C(F)(F)F)cc5)C4)cc3c21` [Example 426, (4-amino-1-methyl-1H-pyrazolo[4,3-c][1,7]naphthyridin-8-yl)((3R)-3-(4-(trifluoromethyl)phenyl)-1-pyrrolidinyl)methanone], the IC50 came to 4.76 µM in the assay on HCT116 WT cells (Homo sapiens, HCT-116, 144 h) and 0.097 µM with HCT116 MTAP null cells (HCT116-MTAP null, 144 h).

With `Cn1ncc2c(N)nc3cc(F)c(C(=O)N4CC(c5ccc(C(F)(F)F)cc5)C4)cc3c21` [Example 427, (4-amino-7-fluoro-1-methyl-1H-pyrazolo[4,3-c]quinolin-8-yl)(3-(4-(trifluoromethyl)phenyl)-1-azetidinyl)methanone], the IC50 in the assay with HCT116 WT cells (Homo sapiens, HCT-116, 144 h) is 2.54 µM; with HCT116 MTAP null cells (HCT116-MTAP null, 144 h), 0.04 µM.

As to `Cn1ncc2c(N)nc3cc(F)c(C(=O)N4CC(c5ccc(C(F)(F)F)cn5)C4)cc3c21` [Example 428, (4-amino-7-fluoro-1-methyl-1H-pyrazolo[4,3-c]quinolin-8-yl)(3-(5-(trifluoromethyl)-2-pyridinyl)-1-azetidinyl)methanone], the half-maximal inhibitory concentration (IC50) with HCT116 WT cells (Homo sapiens, HCT-116, 144 h) is 8.4 µM; with HCT116 MTAP null cells (HCT116-MTAP null, 144 h) it was 0.074 µM.

In the case of `Nc1nc2cc(F)c(C(=O)N3CC(O)(c4ccc(C(F)(F)F)cc4)C3)cc2c2c1COC2` [Example 429, (4-amino-7-fluoro-1,3-dihydrofuro[3,4-c]quinolin-8-yl)(3-hydroxy-3-(4-(trifluoromethyl)phenyl)-1-azetidinyl)methanone], the IC50 came to 20.6 µM with HCT116 WT cells (Homo sapiens, HCT-116, 144 h) and 0.382 µM in the assay on HCT116 MTAP null cells (HCT116-MTAP null, 144 h).

As for `Nc1nc2cc(Cl)c(C(=O)N3CC(c4ccc(C(F)(F)F)cc4)C3)cc2c2c1COC2` [Example 430, (4-amino-7-chloro-1,3-dihydrofuro[3,4-c]quinolin-8-yl)(3-(4-(trifluoromethyl)phenyl)-1-azetidinyl)methanone], the IC50 in the assay with HCT116 WT cells (Homo sapiens, HCT-116, 144 h) worked out at 12.6 µM; in the assay with HCT116 MTAP null cells (HCT116-MTAP null, 144 h) it was 0.445 µM.

Consider `C[C@H]1OCc2c1c(N)nc1ccc(C(=O)N3CC[C@](O)(c4ccc(C(F)(F)F)cc4)C3)cc21` [Example 435, ((3R)-4-amino-3-methyl-1,3-dihydrofuro[3,4-c]quinolin-8-yl)((3S)-3-hydroxy-3-(4-(trifluoromethyl)phenyl)-1-pyrrolidinyl)methanone], for which the IC50 in the assay with HCT116 WT cells (Homo sapiens, HCT-116, 144 h) is 3.76 µM; in the assay on HCT116 MTAP null cells (HCT116-MTAP null, 144 h) it was 0.251 µM.

Consider `Cn1ncc2c(N)nc3cc(F)c(C(=O)N4CC[C@H](c5ccc(C(F)(F)F)cc5)C4)cc3c21` [Example 436, (4-amino-7-fluoro-1-methyl-1H-pyrazolo[4,3-c]quinolin-8-yl)((3R)-3-(4-(trifluoromethyl)phenyl)-1-pyrrolidinyl)methanone], for which the IC50 in the assay on HCT116 WT cells (Homo sapiens, HCT-116, 144 h) stood at 1.72 µM; with HCT116 MTAP null cells (HCT116-MTAP null, 144 h), 0.029 µM.

As for `Cn1ncc2c3cc(C(=O)N4CC[C@H](c5ccc(C(F)(F)F)cc5)C4)c(F)cc3nc(N)c21` [Example 437, (4-amino-7-fluoro-3-methyl-3H-pyrazolo[3,4-c]quinolin-8-yl)((3R)-3-(4-(trifluoromethyl)phenyl)-1-pyrrolidinyl)methanone], the IC50 with HCT116 WT cells (Homo sapiens, HCT-116, 144 h) is 16 µM; with HCT116 MTAP null cells (HCT116-MTAP null, 144 h) it was 0.924 µM.

Take `C[C@H]1OCc2c1c(N)nc1ccc(C(=O)N3CC[C@](F)(c4ccc(C(F)(F)F)cc4)C3)cc21` [Example 438, ((3R)-4-amino-3-methyl-1,3-dihydrofuro[3,4-c]quinolin-8-yl)((3S)-3-fluoro-3-(4-(trifluoromethyl)phenyl)-1-pyrrolidinyl)methanone]: the IC50 worked out at 15.2 µM in the assay with HCT116 WT cells (Homo sapiens, HCT-116, 144 h) and 0.878 µM with HCT116 MTAP null cells (HCT116-MTAP null, 144 h).

For the compound `Cn1ncc2c(N)nc3cc(F)c(C(=O)N4CC(O)(c5ccc(C(F)(F)F)cc5)C4)cc3c21` [Example 439, (4-amino-7-fluoro-1-methyl-1H-pyrazolo[4,3-c]quinolin-8-yl)(3-hydroxy-3-(4-(trifluoromethyl)phenyl)-1-azetidinyl)methanone], the IC50 in the assay with HCT116 WT cells (Homo sapiens, HCT-116, 144 h) worked out at 0.887 µM; in the assay on HCT116 MTAP null cells (HCT116-MTAP null, 144 h), 0.021 µM.

Take `Cn1ncc2c(N)nc3cc(Cl)c(C(=O)N4CC(c5ccc(C(F)(F)F)cc5)C4)cc3c21` [Example 440, (4-amino-7-chloro-1-methyl-1H-pyrazolo[4,3-c]quinolin-8-yl)(3-(4-(trifluoromethyl)phenyl)-1-azetidinyl)methanone]: the half-maximal inhibitory concentration (IC50) in the assay with HCT116 WT cells (Homo sapiens, HCT-116, 144 h) worked out at 0.602 µM; in the assay on HCT116 MTAP null cells (HCT116-MTAP null, 144 h), 0.014 µM.

Consider `Cn1ncc2c(N)nc3cc(Cl)c(C(=O)N4CC(c5ccc(C(F)(F)F)cn5)C4)cc3c21` [Example 442, (4-amino-7-chloro-1-methyl-1H-pyrazolo[4,3-c]quinolin-8-yl)(3-(5-(trifluoromethyl)-2-pyridinyl)-1-azetidinyl)methanone], for which the IC50 in the assay on HCT116 WT cells (Homo sapiens, HCT-116, 144 h) was determined as 3.61 µM; in the assay with HCT116 MTAP null cells (HCT116-MTAP null, 144 h) it was 0.04 µM.

Take `Cn1ncc2c(N)nc3cc(Cl)c(C(=O)N4CC[C@H](c5ccc(C(F)(F)F)cc5)C4)cc3c21` [Example 443, (4-amino-7-chloro-1-methyl-1H-pyrazolo[4,3-c]quinolin-8-yl)((3R)-3-(4-(trifluoromethyl)phenyl)-1-pyrrolidinyl)methanone]: the IC50 in the assay with HCT116 WT cells (Homo sapiens, HCT-116, 144 h) is 0.793 µM; with HCT116 MTAP null cells (HCT116-MTAP null, 144 h), 0.013 µM.

With `Cn1ncc2c(N)nc3cc(Cl)c(C(=O)N4CC(O)(c5ccc(C(F)(F)F)cc5)C4)cc3c21` [Example 444, (4-amino-7-chloro-1-methyl-1H-pyrazolo[4,3-c]quinolin-8-yl)(3-hydroxy-3-(4-(trifluoromethyl)phenyl)-1-azetidinyl)methanone], the IC50 in the assay on HCT116 WT cells (Homo sapiens, HCT-116, 144 h) is 0.499 µM; with HCT116 MTAP null cells (HCT116-MTAP null, 144 h) it was 0.018 µM.

For the compound `Cn1ncc2c(N)nc3cc(F)c(C(=O)N4C[C@@H](CO)[C@H](c5ccc(C(F)(F)F)cc5F)C4)cc3c21` [Example 446, (4-amino-7-fluoro-1-methyl-1H-pyrazolo[4,3-c]quinolin-8-yl)((3R,4S)-3-(2-fluoro-4-(trifluoromethyl)phenyl)-4-(hydroxymethyl)-1-pyrrolidinyl)methanone], the IC50 came to 0.24 µM in the assay with HCT116 WT cells (Homo sapiens, HCT-116, 144 h) and 0.014 µM in the assay with HCT116 MTAP null cells (HCT116-MTAP null, 144 h).

Consider `Cn1ncc2c(N)nc3ccc(C(=O)N4CCOC[C@@H]4c4ccc(S(F)(F)(F)(F)F)cc4)cc3c21` [Example 447, (4-amino-1-methyl-1H-pyrazolo [4,3-c]quinolin-8-yl)((3S)-3-(4-(pentafluoro-lambda~6~-sulfanyl)phenyl)-4-morpholinyl)methanone], for which the IC50 was 0.602 µM with HCT116 WT cells (Homo sapiens, HCT-116, 144 h) and 0.013 µM in the assay on HCT116 MTAP null cells (HCT116-MTAP null, 144 h).

As to `Cn1ncc2c(N)nc3cnc(C(=O)N4CCOC[C@@H]4c4ccc(S(F)(F)(F)(F)F)cc4)cc3c21` [Example 448, (4-amino-1-methyl-1H-pyrazolo [4,3-c][1,7]naphthyridin-8-yl)((3S)-3-(4-(pentafluoro-lambda~6~-sulfanyl)phenyl)-4-morpholinyl)methanone], the IC50 in the assay on HCT116 WT cells (Homo sapiens, HCT-116, 144 h) was 0.13 µM; in the assay on HCT116 MTAP null cells (HCT116-MTAP null, 144 h), 0.006 µM.

As to `Cn1ncc2c(N)nc3cc(Cl)c(C(=O)N4C[C@@H](CO)[C@H](c5ccc(C(F)(F)F)cc5F)C4)cc3c21` [Example 449, (4-amino-7-chloro-1-methyl-1H-pyrazolo[4,3-c]quinolin-8-yl)((3R,4S)-3-(2-fluoro-4-(trifluoromethyl)phenyl)-4-(hydroxymethyl)-1-pyrrolidinyl)methanone], the IC50 in the assay with HCT116 WT cells (Homo sapiens, HCT-116, 144 h) was determined as 0.145 µM; in the assay on HCT116 MTAP null cells (HCT116-MTAP null, 144 h), 0.007 µM.

For `Cn1ncc2c(N)nc3cc(F)c(C(=O)N4CCOC[C@@H]4c4ccc(S(F)(F)(F)(F)F)cc4)cc3c21` [Example 450, (4-amino-7-fluoro-1-methyl-1H-pyrazolo [4,3-c]quinolin-8-yl)((3S)-3-(4-(pentafluoro-lambda~6~-sulfanyl)phenyl)-4-morpholinyl)methanone], the IC50 in the assay on HCT116 WT cells (Homo sapiens, HCT-116, 144 h) is 0.04 µM; with HCT116 MTAP null cells (HCT116-MTAP null, 144 h) it was 0.005 µM.
